Assay results published in US9365584B2, “Thieno [2,3-B] pyridinedione activators of AMPK and therapeutic uses thereof” (Poxel, priority 2009, dated 2016).

test system: AMPK; assay: AMPK enzyme activity assay (Delfia technology, AMARA peptide substrate); format: biochemical; details: compound at 30 μM vs AMP at 200 μM
In short: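 Value is the ratio of compound (30 μM) to AMP (200 μM) response, each as % of basal control. Phosphorylation of the AMARA peptide after AMPK addition was read by Delfia with an anti-phosphoserine antibody.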

| Activity: Ratio between the % of control (basal activity) of compound of formula (1) at 30 μM and the % of control (basal activity) of AMP (natural substrate) at 200 μM | SMILES |
| --- | --- |
| A (0%<A<50%) | Cc1cccc(-c2c(Cl)sc3c2C(=O)C(C)(c2ccc(F)cc2)C(=O)N3)c1 (stereo not shown) [No 170, 2-chloro-5-(4-fluorophenyl)-5-methyl-3-(m-tolyl)-7H-thieno[2,3-b]pyridine-4,6-dione] |
| C (C≧75%) | CCc1ccc(-c2c(Cl)sc3c2C(=O)C(F)(c2ccccc2)C(=O)N3)c(O)c1 (stereo not shown) [No 223, 2-chloro-3-(4-ethyl-2-hydroxy-phenyl)-5-fluoro-5-phenyl-7H-thieno[2,3-b]pyridine-4,6-dione] |
| C (C≧75%) | N#Cc1cccc(C2(F)C(=O)Nc3sc(Cl)c(-c4cccc(F)c4)c3C2=O)c1 (stereo not shown) [No 211, 3-[2-chloro-5-fluoro-3-(3-fluorophenyl)-4,6-dioxo-7H-thieno[2,3-b]pyridin-5-yl]benzonitrile] |
| A (0%<A<50%) | COc1ccccc1-c1c(Cl)sc2c1C(=O)C(C)(c1cccc(C)c1)C(=O)N2 (stereo not shown) [No 56, 2-chloro-3-(2-methoxyphenyl)-5-methyl-5-(m-tolyl)-7H-thieno[2,3-b]pyridine-4,6-dione] |
| C (C≧75%) | COc1ccc(C2(C)C(=O)Nc3sc(Cl)c(-c4ccccc4OC)c3C2=O)cc1 (stereo not shown) [No 67, 2-chloro-3-(2-methoxyphenyl)-5-(4-methoxyphenyl)-5-methyl-7H-thieno[2,3-b]pyridine-4,6-dione] |
| C (C≧75%) | Cc1ccc(-c2c(C)sc3c2C(=O)C(F)(c2ccccc2)C(=O)N3)c(O)c1F (stereo not shown) [No 192, 5-fluoro-3-(3-fluoro-2-hydroxy-4-methyl-phenyl)-2-methyl-5-phenyl-7H-thieno[2,3-b]pyridine-4,6-dione] |
| A (0%<A<50%) | CC1(c2ccc(F)cc2)C(=O)Nc2sc(Cl)c(-c3cccc(F)c3)c2C1=O (stereo not shown) [No 37, 2-chloro-3-(3-fluorophenyl)-5-(4-fluorophenyl)-5-methyl-7H-thieno[2,3-b]pyridine-4,6-dione] |
| A (0%<A<50%) | CC1(c2cccc(F)c2)C(=O)Nc2sc(Cl)c(-c3ccccc3F)c2C1=O (stereo not shown) [No 90, 2-chloro-3-(2-fluorophenyl)-5-(3-fluorophenyl)-5-methyl-7H-thieno[2,3-b]pyridine-4,6-dione] |
| A (0%<A<50%) | COc1cccc(-c2c(Cl)sc3c2C(=O)C(C)(c2ccc(C)cc2)C(=O)N3)c1 (stereo not shown) [No 41, 2-chloro-3-(3-methoxyphenyl)-5-methyl-5-(p-tolyl)-7H-thieno[2,3-b]pyridine-4,6-dione] |
| A (0%<A<50%) | COc1ccccc1C1(F)C(=O)Nc2scc(-c3ccccc3)c2C1=O (stereo not shown) [No 207, 5-fluoro-5-(2-methoxyphenyl)-3-phenyl-7H-thieno[2,3-b]pyridine-4,6-dione] |
| B (50%≦B<75%) | COc1c(-c2c(Cl)sc3c2C(=O)C(F)(c2ccc(F)cc2)C(=O)N3)ccc(C)c1F (stereo not shown) [No 227, 2-chloro-5-fluoro-3-(3-fluoro-2-methoxy-4-methyl-phenyl)-5-(4-fluorophenyl)-7H-thieno[2,3-b]pyridine-4,6-dione] |
| C (C≧75%) | CS(=O)(=O)c1ccc(C2(F)C(=O)Nc3sc(Cl)c(-c4ccc(F)cc4O)c3C2=O)cc1 (stereo not shown) [No 218, 2-chloro-5-fluoro-3-(4-fluoro-2-hydroxy-phenyl)-5-(4-methylsulfonylphenyl)-7H-thieno[2,3-b]pyridine-4,6-dione] |
| C (C≧75%) | Cc1c(F)ccc(-c2csc3c2C(=O)C(F)(c2ccccc2)C(=O)N3)c1O (stereo not shown) [No 102, 5-fluoro-3-(4-fluoro-2-hydroxy-3-methyl-phenyl)-5-phenyl-7H-thieno[2,3-b]pyridine-4,6-dione] |
| C (C≧75%) | Cc1c(F)ccc(-c2csc3c2C(=O)C(F)(c2ccc(F)cc2)C(=O)N3)c1O (stereo not shown) [No 108, 5-fluoro-3-(4-fluoro-2-hydroxy-3-methyl-phenyl)-5-(4-fluorophenyl)-7H-thieno[2,3-b]pyridine-4,6-dione] |
| A (0%<A<50%) | COc1ccc(-c2c(Cl)sc3c2C(=O)C(C)(c2ccccc2)C(=O)N3)cc1 (stereo not shown) [No 36, 2-chloro-3-(4-methoxyphenyl)-5-methyl-5-phenyl-7H-thieno[2,3-b]pyridine-4,6-dione] |
| C (C≧75%) | Cc1ccc(-c2c(Cl)sc3c2C(=O)C(Cl)(c2ccccc2)C(=O)N3)c(O)c1F (stereo not shown) [No 232, 2,5-dichloro-3-(3-fluoro-2-hydroxy-4-methyl-phenyl)-5-phenyl-7H-thieno[2,3-b]pyridine-4,6-dione] |

| Activity: Ratio between the % of control (basal activity) of compound of formula (1) at 30 μM and the % of control (basal activity) of AMP (natural substrate) at 200 μM | SMILES |
| --- | --- |
| C (C≧75%) | Cc1c(F)ccc(-c2c(Cl)sc3c2C(=O)C(Cl)(c2ccccc2)C(=O)N3)c1O (stereo not shown) [No 233, 2,5-dichloro-3-(4-fluoro-2-hydroxy-3-methyl-phenyl)-5-phenyl-7H-thieno[2,3-b]pyridine-4,6-dione] |
| A (0%<A<50%) | CC1(c2cccc(F)c2)C(=O)Nc2sc(Cl)c(-c3ccccc3)c2C1=O (stereo not shown) [No 27, 2-chloro-5-(3-fluorophenyl)-5-methyl-3-phenyl-7H-thieno[2,3-b]pyridine-4,6-dione] |
| C (C≧75%) | Cc1cccc(-c2c(Cl)sc3c2C(=O)C(F)(c2ccccc2)C(=O)N3)c1 (stereo not shown) [No 79, 2-chloro-5-fluoro-3-(m-tolyl)-5-phenyl-7H-thieno[2,3-b]pyridine-4,6-dione] |
| A (0%<A<50%) | Cc1ccc(C2(C)C(=O)Nc3sc(Cl)c(-c4ccccc4)c3C2=O)cc1 (stereo not shown) [No 31, 2-chloro-5-methyl-3-phenyl-5-(p-tolyl)-7H-thieno[2,3-b]pyridine-4,6-dione] |
| B (50%≦B<75%) | COc1ccc(-c2c(F)sc3c2C(=O)C(F)(c2ccccc2)C(=O)N3)cc1 (stereo not shown) [No 202, 2,5-difluoro-3-(4-methoxyphenyl)-5-phenyl-7H-thieno[2,3-b]pyridine-4,6-dione] |
| B (50%≦B<75%) | COc1cccc(C2(F)C(=O)Nc3sc(F)c(-c4ccccc4)c3C2=O)c1 (stereo not shown) [No 183, 2,5-difluoro-5-(3-methoxyphenyl)-3-phenyl-7H-thieno[2,3-b]pyridine-4,6-dione] |
| B (50%≦B<75%) | COc1cc(-c2c(F)sc3c2C(=O)C(F)(c2ccccc2)C(=O)N3)ccc1Br (stereo not shown) [No 160, 3-(4-bromo-3-methoxy-phenyl)-2,5-difluoro-5-phenyl-7H-thieno[2,3-b]pyridine-4,6-dione] |
| A (0%<A<50%) | CC1(c2ccccc2)C(=O)Nc2sc(Cl)c(-c3ccc(F)cc3)c2C1=O (stereo not shown) [No 26, 2-chloro-3-(4-fluorophenyl)-5-methyl-5-phenyl-7H-thieno[2,3-b]pyridine-4,6-dione] |
| A (0%<A<50%) | Cc1ccc(C2(C)C(=O)Nc3sc(Cl)c(-c4ccc(F)cc4)c3C2=O)cc1 (stereo not shown) [No 50, 2-chloro-3-(4-fluorophenyl)-5-methyl-5-(p-tolyl)-7H-thieno[2,3-b]pyridine-4,6-dione] |
| A (0%<A<50%) | COc1ccccc1-c1c(F)sc2c1C(=O)C(F)(c1ccccc1)C(=O)N2 (stereo not shown) [No 181, 2,5-difluoro-3-(2-methoxyphenyl)-5-phenyl-7H-thieno[2,3-b]pyridine-4,6-dione] |
| A (0%<A<50%) | O=C1Nc2scc(-c3cnccn3)c2C(=O)C1(F)c1ccccc1 (stereo not shown) [No 193, 5-fluoro-5-phenyl-3-pyrazin-2-yl-7H-thieno[2,3-b]pyridine-4,6-dione] |
| A (0%<A<50%) | O=C1Nc2sc(Cl)c(-c3cc(F)ccc3OCc3ccccc3)c2C(=O)C1(F)c1ccccc1 (stereo not shown) [No 151, 3-(2-benzyloxy-5-fluoro-phenyl)-2-chloro-5-fluoro-5-phenyl-7H-thieno[2,3-b]pyridine-4,6-dione] |
| C (C≧75%) | Cc1ccc(-c2c(Cl)sc3c2C(=O)C(F)(c2cccnc2)C(=O)N3)cc1C (stereo not shown) [No 187, 2-chloro-3-(3,4-dimethylphenyl)-5-fluoro-5-(3-pyridyl)-7H-thieno[2,3-b]pyridine-4,6-dione] |
| A (0%<A<50%) | CCOc1c(F)ccc(-c2c(Cl)sc3c2C(=O)C(C)(c2ccccc2)C(=O)N3)c1OC (stereo not shown) [No 12, 2-chloro-3-(3-ethoxy-4-fluoro-2-methoxy-phenyl)-5-methyl-5-phenyl-7H-thieno[2,3-b]pyridine-4,6-dione] |
| B (50%≦B<75%) | O=C1Nc2sc(F)c(-c3ccccc3F)c2C(=O)C1(F)c1ccccc1 (stereo not shown) [No 178, 2,5-difluoro-3-(2-fluorophenyl)-5-phenyl-7H-thieno[2,3-b]pyridine-4,6-dione] |
